Experimental findings from patent publication US20030190650A1 (priority 2000, published 2003) are described below.

This assay has as its system primary human neutrophils. As to the kind of experiment: Gliotoxin block of GM-CSF inhibition of neutrophil apoptosis (MTT). It counts as cell-based. The conditions noted are these: 0.1 μg/ml with 5 U/ml GM-CSF. As for the experimental part:
Primary human neutrophils are isolated and purified from peripheral blood of normal healthy individuals. Neutrophils are resuspended in serum containing culture medium containing 5 U/ml of GM-CSF at a concentration of 2×10^6/ml. […] After the indicated time, 10 μl of MTT (5 mg/ml) are added to the cultures and incubated for a further 4 h at 37° C. before solubilisation of the purple coloured formazan with acidic isopropanol. Optical densities are read at 570 nm using a plate reader.

As to `CS[C@]1(CO)C(=O)N2[C@H]3C(=CC=C[C@@H]3O)C[C@@]2(SC)C(=O)N1C` [methylgliotoxin, bis-Dethio-bis (Methylthio) Gliotoxin], the “effect on GM-CSF inhibition of neutrophil apoptosis” value is “blocking effect is not seen”.
